In a melting point compilation (Tetko et al.; mined from patent text by program, amines drawn as free bases though some values may be those of a salt):

Compared with Cc1c(Cc2ccc([N+](=O)[O-])cc2)c(=O)oc2cc(OCC#N)cc(OCC#N)c12, CC1CC(=O)NN=C1c1ccc(NC(=O)Oc2ccc([N+](=O)[O-])cc2)cc1 (stereo not given) is lower in melting point: 178 to 185 °C for the first, 177 to 178 °C for the second.

First: O=C(O)CC1c2ncccc2S(=O)(=O)N1c1ccccc1 (stereo not given)
Second: CN(Cc1ccccc1)c1ccc(C(=O)O)nc1
The melting point of the first is lower: 123 to 128 °C for the first, 168 to 173 °C for the second.

Compared with CN(C)S(=O)(=O)c1cc2c(c(Cl)c1Cl)OC(CO)C2 (stereo not given), CC(C)C1(C)Cc2cc(OCC(=O)O)c(Cl)c(Cl)c2C1=O (stereo not given) is higher in melting point: 133 to 134 °C for the first, 148 °C for the second.

First: CCOc1ccc(Br)c(Cl)c1F
Second: COC(=O)c1ccc(Cl)c(CSC)c1SC
The melting point of the first is higher: 48 to 48.5 °C for the first, 47.1 °C for the second.

Compared with CCOC(=O)c1cc(NCc2ccccc2)c(Nc2ccc(Cl)cc2)c(S(N)(=O)=O)c1, COC(=O)c1ccc2c(c1)CN(C(=O)OCc1ccccc1)C2 is lower in melting point: 187 °C for the first, 59 to 65 °C for the second.

First: Cc1ccc(-c2cn(C)cc(-c3ccccc3)c2=O)cc1Br
Second: C#Cc1ccc(-c2ccccc2)c(C)c1
The melting point of the first is higher: 168 to 170 °C for the first, 57 to 59 °C for the second.

First: NP(N)(=O)NC(=O)C=Cc1ccccc1
Second: COC(=O)[C@@H](NC(=O)Oc1ccccc1)C(C)C
The melting point of the first is higher: 176 to 178 °C for the first, 59.1 °C for the second.

First: O=C(O)COc1cccc(CCn2ncc(-c3ccccc3)c2-c2ccccc2)c1
Second: CC(c1oc2ccccc2c(=O)c1-c1ccccc1)n1nc(-c2cccc(O)c2)c2c(N)ncnc21 (stereo not given)
The melting point of the first is lower: 133 to 138 °C for the first, 212 to 216 °C for the second.

Compared with CCc1ccc(C2CCCN2S(=O)(=O)c2ccc(C)cc2)cc1 (racemic), Cc1ccc(S(=O)(=O)N2[C@@H](C(=O)O)CC[C@H]2c2ccc(F)cc2)cc1 (racemic) is higher in melting point: 92 °C for the first, 166 °C for the second.

First: CCCCCN1C(=O)C(CCC(=O)O)(NC(=O)c2ccc(Cl)c(Cl)c2)c2ccccc21 (stereo not given)
Second: CCCCCCCC(=O)OC(C)c1ccc(-c2ccc(OCc3ccccc3)cc2)cc1 (single isomer, unassigned; (+))
The melting point of the first is higher: 202 to 204 °C for the first, 91 to 92 °C for the second.

First: Cc1cc(OCc2sc(-c3ccc(C(F)(F)F)cc3)nc2C)ccc1/C=C/C(=O)O
Second: Cc1nc(-c2c(F)cccc2Cl)nn1-c1ccc(COc2ncc(C(F)(F)F)cc2Cl)cc1
The melting point of the first is higher: 200 to 203 °C for the first, 96 to 97 °C for the second.

First: CC(C)(C)OC(=O)NC1CCC2(CC1)CSC1=C(O2)c2ccccc2C(=O)C1=O (stereo not given)
Second: CC(C)(C)OC(=O)NCC(=O)OCCCNc1ccc(O)c2c1C(=O)c1c(O)cccc1C2=O
The melting point of the first is higher: 224 to 225 °C for the first, 152 °C for the second.

First: COc1ccccc1N1CCN(CC(C(=O)O)c2ccccc2)CC1 (stereo not given)
Second: CC(C)n1nnc(NC(=O)C(c2ccccc2)c2ccccc2)n1
The melting point of the first is lower: 160 to 163 °C for the first, 175 to 177 °C for the second.

First: O=C(CN1C(=O)c2ccccc2C1=O)c1cc(O)c(O)c([N+](=O)[O-])c1
Second: O=C1c2ccccc2C(=O)N1C[C@H]1COc2ccc(Cl)cc2O1
The melting point of the first is higher: 214 to 216 °C for the first, 174 to 176 °C for the second.

First: CC(C)(O)c1ccc(S(N)(=O)=O)o1
Second: C=C1Oc2cc(OS(=O)(=O)C(F)(F)F)ccc2C(=O)C1c1ccccc1 (stereo not given)
The melting point of the first is lower: 116 to 118 °C for the first, 133 to 135 °C for the second.

First: O=C1C(=C2CCCN2Cc2ccccc2)c2ccccc2N1c1cccc(Cl)c1
Second: O=C(NC1N=C(c2ccccc2F)c2ccccc2NC1=S)c1ccc(Cl)cc1 (stereo not given)
The melting point of the first is lower: 72 to 75 °C for the first, 156 to 158 °C for the second.

Compared with CC(C)Cc1nc(-c2cccnc2)c[nH]c1=O, CNC(=O)c1cc(-c2ccc(OC)c(OC)c2)nn(CC(C)C)c1=O is lower in melting point: 195 to 196 °C for the first, 111 to 113 °C for the second.

First: CCOC(=O)CNC(=O)[C@H](CSCc1ccccc1)NC(=O)OCc1ccccc1
Second: CC(C)C[C@H](N)C(=O)NCCNC(=O)OCc1ccccc1
The melting point of the first is lower: 93 to 95 °C for the first, 148 to 149 °C for the second.

First: BrC(Br)(Br)c1nc2ccccc2s1
Second: CCCCc1nc2c(N)nc3ccccc3c2s1
The melting point of the first is lower: 79 to 80 °C for the first, 149 to 151 °C for the second.

First: CCCc1ccc(-c2ccc(C(=O)N3Cc4cccn4Cc4ccccc43)cc2)cc1
Second: CC1(C)CCC(C)(C)c2cc(-c3cc(-c4ccc(C(=O)O)cc4)ccc3OCCCCCCCO)ccc21
The melting point of the first is lower: 118 to 120 °C for the first, 168 to 172 °C for the second.

First: CC(C)CC(NC(=O)C(C)S)C(=O)O (stereo not given)
Second: CC(C)COC(=O)COC(=O)CON1CC(NC(=O)OCc2ccccc2)C1=O (stereo not given)
The melting point of the first is lower: 77 to 84 °C for the first, 90 to 92 °C for the second.

First: CCOC(=O)c1cc(-c2csc(N)n2)[nH]n1
Second: Cc1nc(-c2cc(N)ccc2F)cs1
The melting point of the first is higher: 205 to 207 °C for the first, 73 to 75 °C for the second.

Compared with COc1ccnc(CSc2nc3c(C(F)(F)F)cccc3[nH]2)c1, COc1c(OCc2ccccc2)ccc2[nH]ccc(=O)c12 is higher in melting point: 146 °C for the first, 180 °C for the second.

Compared with CCOC(=O)C1CSC(c2nsc3ccc(-n4c(=O)cc(C(F)(F)F)n(C)c4=O)cc23)N1 (stereo not given), CC(C)(C)OC(=O)N1CCC(OCc2ccccc2)C1CC(O)Cn1cnc2cccc(C(F)(F)F)c2c1=O (stereo not given) is higher in melting point: 97 to 98 °C for the first, 224 °C for the second.

First: Cn1nc(-c2cc3nccnc3[nH]2)cc1-c1ccccc1
Second: CC(C)n1nc(-c2c(NCc3ccco3)nc(N)nc2-c2ccccc2)ccc1=O
The melting point of the first is higher: 222 to 223 °C for the first, 213 to 214 °C for the second.

Compared with CCCCC[C@@H](O)C=C[C@@H]1[C@@H](CC(=O)O)[C@@H](O)C[C@H]1O, CCCCCCCCCCCC(=O)NCCNCCNCCNC(=O)CCCCCCCCCCC is higher in melting point: 105 to 107 °C for the first, 110 to 112 °C for the second.

Compared with COc1cc2c(cc1OC)-c1c(N3CCNCC3)nc3ccccc3c1C2=O, COc1ccc([C@H]2CC[C@H](c3ccc(OC)c(OC)c3)O2)cc1OC (relative stereo) is lower in melting point: 135 to 136 °C for the first, 114 to 115 °C for the second.

First: CN(C)CCNc1ccc(NCCN(CCO)CCO)c2c1C(=O)c1c(O)ccc(O)c1C2=O
Second: CCN(CC)CCNC(=O)c1c(I)ccc2c(=O)c3ccccc3[nH]c12
The melting point of the first is lower: 204 to 205 °C for the first, 215 to 217 °C for the second.

Compared with COc1cc(C=NNC(=O)c2ccc(O)c(N)c2)cc(OC)c1OCc1ccc(C(C)C)cc1, COc1cc(C(=O)NCCc2cccc(C)c2)cc(OC)c1OC is lower in melting point: 174 to 175 °C for the first, 105 to 108 °C for the second.

Compared with COC(=O)C1OC(I)C(OC(=O)C(C)(C)C)C(OC(=O)C(C)(C)C)C1OC(=O)C(C)(C)C (stereo not given), COC(=O)C1CCC(C)(C(=O)c2ccc(OC)cc2OC)C1(C)C (stereo not given) is higher in melting point: 98 to 100 °C for the first, 108 °C for the second.

First: COc1ccc2c(c1O)C13CCNC(C2)C1CC(C)C(=O)C3 (stereo not given)
Second: COc1ccc(-n2nc(C(=O)NC(C)(C)C)c3c2C2CCC3C2)cc1 (stereo not given)
The melting point of the first is higher: 163 to 165 °C for the first, 145 to 147 °C for the second.

First: O=C1CN=C(c2ccccc2Cl)c2cc(I)sc2N1
Second: Cc1nc2sc(Br)cc2c(=O)n1-c1ccccc1Cl
The melting point of the first is higher: 229 to 231 °C for the first, 164 to 166 °C for the second.

First: CN(C)C(=O)c1cn(Cc2ccccc2Cl)nn1
Second: CNC(=O)N(C)c1nnc(SCc2cccc(F)c2)s1
The melting point of the first is higher: 120 to 121 °C for the first, 112 to 116 °C for the second.

Compared with Brc1cccc(OCc2ccc3ccccc3c2)c1, COc1ccccc1Nc1nnc(Cc2ccncc2)c2ccccc12 is higher in melting point: 109 to 112 °C for the first, 190 to 191 °C for the second.

First: CCCc1ccc(Cc2c(C(F)(F)F)[nH][nH]c2=O)cc1
Second: COc1cc(O)ccc1/C=C/C(=O)CC(=O)CCc1ccc(O)cc1
The melting point of the first is lower: 114 to 116 °C for the first, 131 to 135 °C for the second.

First: N#Cc1ccc(-c2ccc(C#N)cc2-c2nc3ccccc3[nH]2)c(-c2nc3ccccc3[nH]2)c1
Second: CC1N=C(c2ccccc2F)c2cc(C#N)ccc2NC1=O (stereo not given)
The melting point of the first is higher: 347 to 349 °C for the first, 216 °C for the second.

First: COC(=O)c1cccc(C=Cc2cccc(C(=O)OC)c2)c1
Second: COc1ccc(C(=O)C2Cc3cc(OC)ccc3C2=O)cc1 (stereo not given)
The melting point of the first is lower: 105 to 107 °C for the first, 160 to 162 °C for the second.

First: NCC(O)CN1CCC(C2(c3ccc(F)cc3)OCCO2)CC1 (stereo not given)
Second: Nc1ccc(NC(=O)C(=O)N2CCC(Cc3ccc(F)cc3)CC2)cc1
The melting point of the first is lower: 132 to 136 °C for the first, 141 to 143 °C for the second.

First: O=C(Cn1nnc2ccccc21)Nc1ccc(-n2nc(C3CC3)cc2C2CC2)c(F)c1
Second: CN1CCC(C2c3cccc4c3N(CC4)c3ccccc3N2C)CC1 (stereo not given)
The melting point of the first is higher: 201 to 203 °C for the first, 138 to 139 °C for the second.

Compared with COc1ccc(N2CCN(c3c(C)c(C)c4c(c3C)C(c3ccco3)C(C)(C)O4)CC2)cc1 (stereo not given), CC(C)(C)[Si](C)(C)Oc1ccc(-c2ccc(C3CCC(c4c(F)cccc4F)=N3)cc2)cc1 (stereo not given) is lower in melting point: 110 to 111 °C for the first, 33 °C for the second.

CN(Cc1cc2c(=O)c(C(=O)NCc3ccc(Cl)cc3)cn(C)c2o1)CC(O)c1nccs1 (stereo not given) and CC(=O)Nc1cc(N(C)C)ccc1C1(c2ccc(N(C)C)cc2N(C)C)OC(=O)c2ccccc21 (stereo not given) cannot be ordered by melting point: 114 to 116 °C for the first, 97 to 136 °C for the second.

Compared with CC(C)c1cccc(C(C)C)c1NC(=O)C1CCCC(Cc2ccccn2)(Cc2ccccn2)C1=O (stereo not given), COc1ccc(C=C2CS(=O)(=O)CC3=C2N=C2SCCN2C3c2ccc(OC)cc2)cc1 (stereo not given) is higher in melting point: 70 to 73 °C for the first, 235 to 240 °C for the second.

First: CCc1c(Oc2cc(C)cc(C)c2)n(CC2CC=CC2)c(=O)[nH]c1=O
Second: CCC(CC)Nc1cc(C)nc(Oc2c(C)cc(C)cc2C)c1NC(=O)CCl
The melting point of the first is higher: 179 to 180 °C for the first, 152 to 154 °C for the second.

Compared with CC(C=O)=CC=CC(C)=CC=CC=C(C)C1OCC(C)(C)CO1, CSC(C)=NOC(=O)NCSN(C(C)(C)C)P1(=O)OCC(C)(C)CO1 is lower in melting point: 140 °C for the first, 134 °C for the second.

Compared with O=c1ccc2cc(I)ccc2[nH]1, O=C1Cc2c(CCO)cccc2N1 is lower in melting point: 261 °C for the first, 145 to 147 °C for the second.

First: COC(=O)C1CCC2ON=C(c3ccc(Cl)cc3)C2CC1 (stereo not given)
Second: O=C(OC#CCc1ccccc1)C1CN=CNC1 (stereo not given)
The melting point of the first is higher: 150 to 185 °C for the first, 117 to 118 °C for the second.

Compared with CCn1c(=O)n(CCCCC(C)=O)c(=O)c2cnn(C)c21, CCNc1nc(C)c(C(=O)OCC)c(NCCCN(C)C)c1[N+](=O)[O-] is lower in melting point: 112 °C for the first, less than 20 °C for the second.

First: COC(=O)c1ccc(C#CCCO)cc1
Second: COc1cc2c(cc1-c1cc(-c3ccc(C#N)cc3)on1)C(C)(C)CCC2(C)C
The melting point of the first is lower: 95.5 to 96 °C for the first, 202 to 203 °C for the second.

CSc1ncc2nc(C)nc(Nc3ccc(F)c(Cl)c3)c2n1 and CC(C)(C)CC(C)(C)c1cc(Cl)c(O)c(-n2nc3ccc(C(F)(F)F)cc3n2)c1 cannot be ordered by melting point: 70 to 75 °C for the first, 72 to 81 °C for the second.

First: CS(=O)(=O)c1ccc(-c2sc(Nc3ccc(C#N)cc3)nc2-c2ccc(F)cc2)cc1
Second: C[Si](C)(C)/C=C/c1c(N)nc(C2CC2)nc1C(=O)O
The melting point of the first is higher: 273 to 274 °C for the first, 146 to 149 °C for the second.
